According to patent publication US10357431B2, “Process for the preparation of a pharmaceutical composition comprising a low soluble pharmaceutically active ingredient” (Lek Pharmaceuticals d.d., priority 2010, dated 2019):
Where two headings read alike, the source gives them in different places.

Columns and labels:
[1] = cited from earlier work
[2] = Particle size distribution of ezetimibe (laser diffraction, e.g. Malvern); assay type: physicochemical
Text: In a particularly exemplified embodiment according to the present invention, the particle size distribution d(0.5) that is present after step (b) and prior to step (c), after step (c) and prior to step (d), and/or after step (d), corresponds essentially to or is smaller than the primary particle size distribution d(0.5) of the API that is used for providing the suspension of step (a). This (further) contributes to a further improved pharmaceutical composition or dosage form, respectively, as e.g. the dissolution profile and controllability are further enhanced. In general, the particle size distribution of a powder, or granular material, or particles e.g. dispersed in fluid, is a list of values or a mathematical function that defines the relative amounts of particles present, sorted according to size. The nomenclature describing the particle size distribution is herein referred to as “d(0.5)”. For example, a d(0.5) of 5 μm means that 50% (by volume) of the particles have a size less than or equal to 5 μm, as tested by any conventional method such as laser diffraction method (e.g. laser diffraction Malvern). When measuring the particle size distribution by laser diffraction Malvern, an appropriate amount of sample (usually a few drops of suspension) is put into a gently mixing chamber filled with water. From this chamber, the sample continuously flows through a measuring chamber and the particle size distribution is determined by laser diffraction. Within the meaning of the present invention, the term “particle size distribution d(0.5) corresponds essentially to or is smaller than” denotes that (i) the particle size distribution d(0.5) of the primary particles when measured after deagglomeration, i.e. after the high energy input treatment has been applied to the suspension containing the API particles, essentially corresponds to the particle size distribution d(0.5) of the primary particles that were used for providing the suspension of step (a); or (ii), alternatively, it denotes that the particle size distribution d(0.5) when measured after deagglomeration is smaller than the particle size distribution d(0.5) of the primary particles that were used for providing the suspension of step (a).
The particle size distribution d(0.5) of the primary API particles used for providing the suspension of step (a) in (A), (B) and (C) can be assessed by any method that is known to a person skilled in the art, such as by using laser diffraction method (e.g. Malvern Mastersizer, see above). As described elsewhere herein, said primary API particles may be present deagglomerated, however said particles may also be present in an agglomerated state. In the latter case, it is also possible to determine the particle size distribution d(0.5) by laser diffraction. If appropriate, it is preferred that the method for carrying out the first measurement corresponds to the method used for carrying out the second measurement.
The method according to the present invention is particularly useful for processing API particles having a particle size distribution d(0.5) that is relatively small, e.g. a particle size distribution d(0.5) where agglomeration is generated (critical particle size/particle size distribution). The critical particle size/particle size distribution for a selected API is known to a person skilled in the art. Further, said size/size distribution can be determined by any suitable method that is known to a person skilled in the art, such as by using SEM or laser diffraction. Usually SEM or more preferably disintegrated tablet suspension is recorded under a visual microscope and is processed with particle recognition software to obtain an estimation of particle size distribution. On SEM pictures, eventually occurring agglomerates are also visible. When using laser diffraction, a suspension of the API is transferred to the dispersing chamber containing water. […]

[3] = Example 3, Table 1, particle size after deagglomeration (suspension passed through ball mill)
[4] = Example 3, Table 1, starting particle size
[5] = Example 4, Table 2, particle size after deagglomeration (high energy rotor-stator mixer)
[6] = Example 4, Table 2, starting particle size
[7] = Example 6, Table 3, particle size after milling (rotor-stator mixer, then ball mill)
[8] = Example 6, Table 3, starting particle size
[9] = Example 7, Table 4, particle size after milling (rotor-stator mixer, then ball mill)
[10] = Example 7, Table 4, starting particle size

For `O=C1[C@H](CC[C@H](O)c2ccc(F)cc2)[C@@H](c2ccc(O)cc2)N1c1ccc(F)cc1` [ezetimibe], the solubility ([1]; in ethanol, methanol, and acetone) is listed as “freely to very soluble”, the solubility ([1]; in water) is listed as “particularly poorly soluble” and the “size below which 50% of micronized ezetimibe particles were” value ([2]; Comparative Example 5, micronized starting ezetimibe) is listed as 3.9 micrometers. The “D(0.1)” value [2, 3] was 0.84 μm, the “D(0.5)” value [2, 3] was 2.98 μm and the “D(0.9)” value [2, 3] was 6.28 μm. The “D(0.1)” value [2, 4] was 0.30 μm, the “D(0.5)” value [2, 4] was 2.97 μm and the “D(0.9)” value [2, 4] was 6.87 μm. The “change of particle size distribution d(0.5)” value ([2]; Example 3, suspension passed through a ball mill) was “remained essentially unchanged”, the “D(0.1)” value [2, 5] was 0.83 μm and the “D(0.5)” value [2, 5] was 2.54 μm. For the same compound, the “D(0.9)” value [2, 5] was 5.03 μm, the “D(0.1)” value [2, 6] was 0.30 μm and the “D(0.5)” value [2, 6] was 2.97 μm. The “D(0.9)” value [2, 6] was 6.87 μm, the “change of particle size distribution d(0.5)” value ([2]; Example 4, suspension mixed with high energy rotor-stator mixer) was “remained unchanged” and the “D(0.1)” value [2, 7] was 0.24 μm. The “D(0.5)” value [2, 7] was 1.11 μm, the “D(0.9)” value [2, 7] was 4.35 μm and the “D(0.1)” value [2, 8] was 0.82 μm. For the same compound, the “D(0.5)” value [2, 8] was 3.29 μm, the “D(0.9)” value [2, 8] was 6.49 μm and the “D(0.1)” value [2, 9] was 0.63 μm. For the same compound, the “D(0.5)” value [2, 9] was 1.99 μm, the “D(0.9)” value [2, 9] was 5.49 μm and the “D(0.1)” value [2, 10] was 0.83 μm. For the same compound, the “D(0.5)” value [2, 10] was 2.76 μm and the “D(0.9)” value [2, 10] was 5.19 μm.
